Data on 23 compounds can be found in ChEMBL document CHEMBL1132396, “Potent, orally bioavailable somatostatin agonists: good absorption achieved by urea backbone cyclization” (Bioorg Med Chem Lett, 1999).

In data set [1] the target is T1, Somatostatin receptor type 2 (Homo sapiens, UniProt P30874). The experiment in a line: In vitro binding affinity was evaluated against human Somatostatin receptor type 2 (hSSTR-2).
Data set [2] addresses Somatostatin receptor type 2 (Mus musculus, UniProt P30875). The data set can be described thus: In vitro binding affinity was evaluated against mouse Somatostatin receptor type 2 (mSSTR-2).
Data set [3] addresses T1, Somatostatin receptor type 2. The data set can be described thus: In vitro binding affinity was evaluated against human Somatostatin receptor type 2 in experiment 1.
Data set [4] shares this target. The experiment in a line: In vitro binding affinity was evaluated against human Somatostatin receptor type 2 in experiment 2.
The target in data set [5] is Somatostatin receptor type 5 (Homo sapiens, UniProt P35346). The experiment in a line: In vitro binding affinity was evaluated against human Somatostatin receptor type 5 (hSSTR-5).
Data set [6] can be described thus: Bioavailability. Conditions: beagle, dog, in vivo. It counts as ADME, organism-based, Canis lupus familiaris.
The species named for another data set is Rattus norvegicus. The data set can be described thus: Compound tested for the inhibition of growth hormone release was determined using primary cultures of rat anterior pituitary cells. Format: functional, cell-based. Conditions: Pituitary gland cell.
Data set [7] deals with Somatostatin receptor type 3 (Homo sapiens, UniProt P32745). The data set can be described thus: In vitro binding affinity was evaluated against human Somatostatin receptor type 3 (hSSTR-3).
Data set [8] can be described thus: Area under curve after 2 mpk peroral administration to beagles. Format: ADME, Canis lupus familiaris. The note with it: Beagle, dog, in vivo, po, 2 mg/kg.
Data set [9] concerns the target Somatostatin receptor type 4 (Homo sapiens, UniProt P31391). The data set can be described thus: In vitro binding affinity was evaluated against human Somatostatin receptor type 4 (hSSTR-4).
The nature of data set [10]: Bioavailability after 2 mpk peroral administration to beagles. It counts as ADME, organism-based, Canis lupus familiaris. Conditions: Beagle, dog, in vivo, po, 2 mg/kg.
Data set [11] deals with Somatostatin receptor type 1 (Homo sapiens, UniProt P30872). The experiment in a line: In vitro binding affinity was evaluated against human Somatostatin receptor type 1 (hSSTR-1).
A short description of data set [12]: Cmax value after 2 mpk peroral administration to beagles. Format: ADME, organism-based, Canis lupus familiaris. Also on record: dose 2 mpk, route oral. Conditions: Beagle, dog, in vivo, po, 2 mg/kg.
A short description of data set [13]: Cmax value after 1 mpk peroral administration to beagles. Format: ADME, organism-based, Canis lupus familiaris. Also on record: dose 1 mpk, route oral. The note with it: Beagle, dog, in vivo, po, 1 mg/kg.
Data set [14] is described as follows: Area under curve after 1 mpk peroral administration to beagles. Format: ADME, Canis lupus familiaris. Conditions: Beagle, dog, in vivo, po, 1 mg/kg.
Data set [15] is described as follows: Bioavailability after 1 mpk peroral administration to beagles. Format: ADME, organism-based, Canis lupus familiaris. The note with it: Beagle, dog, in vivo, po, 1 mg/kg.

“And” between values parts separate entries of the source, which are not always exact repeats. Equal values may be shown once.

T1 sequence (P30874 whole entry): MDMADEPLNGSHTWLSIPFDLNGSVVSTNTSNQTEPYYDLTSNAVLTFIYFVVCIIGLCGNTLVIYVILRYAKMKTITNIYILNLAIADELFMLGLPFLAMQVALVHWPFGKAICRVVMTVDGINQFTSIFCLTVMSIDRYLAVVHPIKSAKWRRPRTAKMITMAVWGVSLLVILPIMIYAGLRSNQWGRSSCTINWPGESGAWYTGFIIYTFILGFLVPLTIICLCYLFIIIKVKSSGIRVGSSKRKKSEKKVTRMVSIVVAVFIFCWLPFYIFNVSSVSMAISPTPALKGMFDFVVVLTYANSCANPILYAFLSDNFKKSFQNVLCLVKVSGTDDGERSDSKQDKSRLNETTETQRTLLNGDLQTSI
Chain of Somatostatin receptor type 2 (Mus musculus, UniProt P30875) (P30875 whole entry): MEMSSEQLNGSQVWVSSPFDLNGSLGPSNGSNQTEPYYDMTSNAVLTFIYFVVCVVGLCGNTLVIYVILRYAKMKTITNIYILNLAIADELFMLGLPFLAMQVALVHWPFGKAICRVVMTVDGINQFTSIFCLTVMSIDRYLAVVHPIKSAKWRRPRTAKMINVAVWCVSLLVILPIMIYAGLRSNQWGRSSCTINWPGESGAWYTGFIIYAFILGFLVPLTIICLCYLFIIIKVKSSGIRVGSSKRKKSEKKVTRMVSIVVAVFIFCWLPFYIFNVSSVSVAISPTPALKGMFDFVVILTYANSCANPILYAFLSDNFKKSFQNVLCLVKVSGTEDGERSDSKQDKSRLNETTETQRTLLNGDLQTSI
Chain of Somatostatin receptor type 3 (P32745 whole entry): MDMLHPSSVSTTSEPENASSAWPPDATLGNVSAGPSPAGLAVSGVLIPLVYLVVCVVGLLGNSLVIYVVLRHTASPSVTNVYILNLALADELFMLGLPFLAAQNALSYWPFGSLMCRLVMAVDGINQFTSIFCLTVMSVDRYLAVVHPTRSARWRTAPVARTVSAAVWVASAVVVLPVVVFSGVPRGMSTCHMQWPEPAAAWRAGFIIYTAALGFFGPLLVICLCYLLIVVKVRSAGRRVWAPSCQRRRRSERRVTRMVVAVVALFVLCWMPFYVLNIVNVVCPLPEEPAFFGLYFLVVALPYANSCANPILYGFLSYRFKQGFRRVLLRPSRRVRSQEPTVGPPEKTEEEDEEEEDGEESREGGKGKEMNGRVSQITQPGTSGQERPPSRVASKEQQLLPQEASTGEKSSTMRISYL
Chain of Somatostatin receptor type 4 (P31391 whole entry): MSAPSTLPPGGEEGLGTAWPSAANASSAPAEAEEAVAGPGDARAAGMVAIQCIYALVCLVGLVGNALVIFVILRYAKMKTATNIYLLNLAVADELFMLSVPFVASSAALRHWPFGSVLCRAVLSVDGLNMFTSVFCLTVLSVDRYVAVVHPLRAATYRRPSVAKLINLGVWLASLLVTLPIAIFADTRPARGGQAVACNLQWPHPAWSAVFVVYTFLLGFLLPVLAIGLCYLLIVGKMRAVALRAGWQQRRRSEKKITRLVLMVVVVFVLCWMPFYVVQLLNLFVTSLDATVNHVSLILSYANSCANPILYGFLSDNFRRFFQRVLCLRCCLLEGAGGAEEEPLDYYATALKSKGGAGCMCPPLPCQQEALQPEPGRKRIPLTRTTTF
Chain of Somatostatin receptor type 1 (P30872 whole entry): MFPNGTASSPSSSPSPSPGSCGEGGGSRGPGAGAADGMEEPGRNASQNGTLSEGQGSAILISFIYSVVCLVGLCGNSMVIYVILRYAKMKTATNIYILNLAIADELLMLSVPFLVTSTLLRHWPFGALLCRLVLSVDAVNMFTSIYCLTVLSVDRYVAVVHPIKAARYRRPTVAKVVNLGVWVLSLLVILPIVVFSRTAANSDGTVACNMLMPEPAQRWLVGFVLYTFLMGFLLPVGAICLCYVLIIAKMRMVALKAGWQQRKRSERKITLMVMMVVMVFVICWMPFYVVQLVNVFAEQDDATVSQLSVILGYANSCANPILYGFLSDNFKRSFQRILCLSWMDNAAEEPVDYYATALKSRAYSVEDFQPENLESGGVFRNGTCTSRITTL

One may read the Ki as a dissociation constant, usually derived from enzyme kinetics or from competition with a known ligand. With `C[C@@H](c1c[nH]c2ccccc12)[C@H](C(=O)NC[C@H]1OC[C@H](N)CO1)N1CCN(CCC(c2ccccc2)c2ccccc2)C1=O`, the Ki in [1] is 0.0085 µM and 0.0011 µM. As to `NCCCCCNC(=O)[C@@H](Cc1c[nH]c2ccccc12)NC(=O)N1CCC2(CCc3ccccc32)CC1`, the Ki in [2] amounted to 0.01 µM. A word on the bioavailability: it is dose-corrected exposure relative to a reference, in per cent. Low readings indicate poor availability, high ones good availability. One may read the IC50 as the concentration at which inhibition is half-maximal. In the case of `C[C@@H](c1c[nH]c2ccccc12)[C@H](C(=O)N(C)C[C@H]1OC[C@H](N)CO1)N1CCN(C2CCCN(c3ccccc3)C2)C1=O` (stereo partly drawn), the Ki is 0.0021 µM in data set [3], 0.014 µM in data set [4], 1.4 µM in [5] and above 10 µM in data set [7]. This compound showed a bioavailability in data set [6] of 15%. Moreover, the IC50 in the data set listed under Rattus norvegicus was found to be 0.07 µM. For the compound `COC(=O)[C@@H](CCCCN)NC(=O)[C@@H](Cc1c[nH]c2ccccc12)OC(=O)N1CCC2(CCc3ccccc32)CC1`, in [2], the Ki worked out at 0.01 µM.

Turning to `C[C@@H](c1c[nH]c2ccccc12)[C@H](C(=O)N[C@H](CCCCN)C(=O)OC(C)(C)C)N1CCN(Cc2ccccc2)C1=O`, the affinity in data set [1] corresponds to a Ki of 0.014 µM. The same measure, in the same setting: with `C[C@@H](c1c[nH]c2ccccc12)[C@H](C(=O)NC[C@H]1OC[C@H](N)CO1)N1CCN(CCc2cccc3ccccc23)C1=O` the figure was 0.122 µM.

Broadly, the AUC is the area under the concentration-time curve, a measure of exposure. A higher AUC goes with high exposure. What is called Cmax is the peak of the concentration-time curve. As to `C[C@@H](c1c[nH]c2ccccc12)[C@H](C(=O)N[C@H](CCCCN)C(=O)OC(C)(C)C)N1CCN(CCCc2ccccc2)C1=O`, the AUC in data set [8] was 837 ng·h/mL. Besides, the Ki came out at 0.083 µM in [9]; 0.0036 µM in data set [1]; 0.712 µM in [11]; 0.284 µM in data set [5]; 1.29 µM in data set [7]. Moreover, the bioavailability in data set [10] stood at 5%. Also, the peak concentration (Cmax) in data set [12] came out at 350 ng/mL. With `C[C@@H](c1c[nH]c2ccccc12)[C@H](C(=O)NC[C@H]1OC[C@H](N)CO1)N1CCN(CCCc2ccccc2)C1=O`, affinity in [1] was put at a Ki of 0.018 µM. Consider `C[C@@H](c1c[nH]c2ccccc12)[C@H](C(=O)N[C@H](CCCCN)C(=O)OC(C)(C)C)N1CCN(C2CCC(c3ccccc3)CC2)C1=O` (stereo partly drawn), for which the Ki stood at 0.04 µM in data set [3] and 0.0063 µM in [4]. Compound `COC(=O)[C@@H](CCCCN)NC(=O)[C@@H](Cc1c[nH]c2ccccc12)NC(=O)N1CCC2(CCc3ccccc32)CC1` yielded a Ki in data set [2] of 0.002 µM. With `CC(CCN1CCN([C@@H](C(=O)N[C@H](CCCCN)C(=O)OC(C)(C)C)[C@@H](C)c2c[nH]c3ccccc23)C1=O)c1ccccc1` (stereo partly drawn), affinity in [1] was put at a Ki of 0.0059 µM.

Compound `C[C@@H](c1c[nH]c2ccccc12)[C@H](C(=O)N(C)C[C@H]1OC[C@H](N)CO1)N1CCN(CCC(c2ccccc2)c2ccccc2)C1=O` registered a Ki in data set [1] of 0.0046 µM. As for `C[C@@H](c1c[nH]c2ccccc12)[C@H](C(=O)NC[C@H]1OC[C@H](N)CO1)N1CCN(Cc2ccc(Cl)c(Cl)c2)C1=O`, in [1], the affinity corresponds to a Ki of 0.0073 µM. The compound further came in with a bioavailability in [6] of 21%. As for `C[C@@H](c1c[nH]c2ccccc12)[C@@H](NC(=O)NCCCc1ccccc1)C(=O)N[C@H](CCCCN)C(=O)OC(C)(C)C`, the peak level in [13] (Cmax) was 86 ng/mL. The compound also returned a Ki in [1] of 0.001 µM. The AUC in data set [14] was 314 ng·h/mL. In [15], this compound yielded a bioavailability of 1%. In the case of `CN(C(=O)N1CCC2(CCc3ccccc32)CC1)[C@H](Cc1c[nH]c2ccccc12)C(=O)NCCCCCN`, the Ki in data set [2] is above 0.01 µM. Compound `CC(CCc1ccccc1)N1CCN([C@@H](C(=O)N[C@H](CCCCN)C(=O)OC(C)(C)C)[C@@H](C)c2c[nH]c3ccccc23)C1=O` (stereo partly drawn) had a Ki in data set [1] of 0.012 µM.

In data set [1], `C[C@@H](c1c[nH]c2ccccc12)[C@H](C(=O)N[C@H](CCCCN)C(=O)OC(C)(C)C)N1CCN(C2CCCN(c3ccccc3)C2)C1=O` (stereo partly drawn) gave a Ki of 0.0014 µM. Same read-out and setting: with `C[C@@H](c1c[nH]c2ccccc12)[C@H](C(=O)NC[C@H]1OC[C@H](N)CO1)N1CCN(CCCn2c(O)nc3ccccc32)C1=O` the figure was 0.04 µM; with `C[C@@H](c1c[nH]c2ccccc12)[C@H](C(=O)N[C@H](CCCCN)C(=O)OC(C)(C)C)N1CCN(c2cccc(-c3ccccc3)c2)C1=O`, 0.08 µM. `C[C@@H](c1c[nH]c2ccccc12)[C@@H](NC(=O)N(C)CCCc1ccccc1)C(=O)N[C@H](CCCCN)C(=O)OC(C)(C)C` displayed a Cmax in [13] of 103 ng/mL. The compound also returned a Ki in data set [1] of 0.0022 µM. Further, the AUC in data set [14] was 333 ng·h/mL. Regarding `C[C@@H](c1c[nH]c2ccccc12)[C@H](C(=O)N(C)C[C@H]1OC[C@H](N)CO1)N1CCN(CCCc2ccccc2)C1=O`, the affinity in [1], expressed as Ki, was 0.011 µM. In turn, `C[C@@H](c1c[nH]c2ccccc12)[C@H](C(=O)N[C@H](CCCCN)C(=O)OC(C)(C)C)N1CCN(Cc2ccc(C(F)(F)F)cc2)C1=O` yielded a Ki in data set [1] of 0.0013 µM. This compound also gave a bioavailability in data set [6] of 3%. In the case of `C[C@@H](c1c[nH]c2ccccc12)[C@H](C(=O)N[C@H](CCCCN)C(=O)OC(C)(C)C)N1CCN(CCc2ccccc2)C1=O`, the Ki in [1] came out at 0.047 µM.
